Measurements from patent US5051534A, “Novel cyclopropyl squalene derivatives and their use as inhibitors of cholesterol synthesis” (Merrell Dow Pharmaceuticals Inc., priority 1990, dated 1991).

Target: T1, squalene epoxidase (Rattus norvegicus, UniProt P52020)
T1 construct: Microsomes, prepared by ultracentrifugation of homogenates of rat liver; from tissue; host or cells: rat liver microsomes, incubated with the high speed supernatant fraction
Experiment: Inhibition of squalene epoxidase in rat liver microsomes (3H-squalene incubation, TLC or HPLC radioactivity)
Format: biochemical
Details: 37° C., 45 minutes, 60 μM 3H-squalene, 2.0 mM NADPH, 0.01 mM FAD, compounds tested at >0.0 to 100.0 μM
Experimental: The following assay is used to test compounds for their ability to inhibit 2,3-oxidosqualene lanosterol-cyclase (squalene cyclase) or squalene epoxidase. Microsomes, prepared by ultracentrifugation of homogenates of rat liver, are incubated at 37° C. for 45 minutes in the presence of 60 μM ^3 H-squalene, 2.0 mM NADPH, 0.01 mM FAD, and the high speed supernatant fraction from the microsomal preparation. Blanks, in which NADPH has been omitted, are run simultaneously with the test compounds. Compounds are tested at concentrations of >0.0 to 100.0 μM.
Following incubation the samples are saponified, standards are added to each sample, and then the reaction products are extracted into hexane. The hexane extracts are dried and then the dried extracts are redissolved in chloroform. […] Spots containing the reaction products are scraped from the TLC plates and counted for radioactivity in a scintillation counter. An IC50 is finally calculated.
Incubation reactions are stopped by the addition of chloroform:methanol, standards are added and the reaction products and standards are extracted into chloroform. […] Chromatographic peaks containing reaction products are monitored for radioactivity with a flow-through scintillation counter connected in series with the HPLC column. An IC50 (Inhibitory Concentration) is calculated based on the radioactivity in controls and samples. […]

T1 sequence (P52020 whole entry): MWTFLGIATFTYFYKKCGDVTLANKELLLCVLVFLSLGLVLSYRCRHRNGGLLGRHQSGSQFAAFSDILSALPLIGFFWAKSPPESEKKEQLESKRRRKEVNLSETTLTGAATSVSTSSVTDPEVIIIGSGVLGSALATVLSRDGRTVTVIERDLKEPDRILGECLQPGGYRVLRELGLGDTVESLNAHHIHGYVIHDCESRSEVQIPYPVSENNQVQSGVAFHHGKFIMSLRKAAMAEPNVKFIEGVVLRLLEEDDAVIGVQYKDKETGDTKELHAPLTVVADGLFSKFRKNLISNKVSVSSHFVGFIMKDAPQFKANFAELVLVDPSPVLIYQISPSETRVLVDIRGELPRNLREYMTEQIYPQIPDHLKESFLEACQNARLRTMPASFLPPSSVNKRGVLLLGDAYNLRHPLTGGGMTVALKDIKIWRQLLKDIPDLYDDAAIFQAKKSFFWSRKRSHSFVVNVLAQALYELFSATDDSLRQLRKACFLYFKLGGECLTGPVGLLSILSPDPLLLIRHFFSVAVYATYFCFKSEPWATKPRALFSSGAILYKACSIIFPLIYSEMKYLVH

CC(C)=CCC/C(C)=C/CC/C(C)=C/CC/C=C(\C)CC/C=C(\C)CCCOC1CC1 [Compound 1, 4,8,13,17,21-Pentamethyl-4,8,12,16,20-docosapentaen-l-ol cyclopropyl ether]
IC50: 42 µM
